pKd: −log10 of the molar value.
Columns and labels:
VEGFR2 = target: T1, VEGFR2 (Homo sapiens, UniProt P35968); experiment: KINOMEscan; assay type: binding; conditions: 2000 nM
T1 construct: DNA label (for qPCR read-out); purchased DiscoveRx (KINOMEscan scanMAX panel)

TLK1 = target: T2, TLK1 (Homo sapiens, UniProt Q9UKI8); experiment: KINOMEscan; assay type: binding; conditions: 2000 nM
T2 construct: DNA label (qPCR read-out); purchased KINOMEscan (DiscoveRx) ScanMAX panel

DCAMKL3 = target: T3, DCAMKL3 (Homo sapiens, UniProt Q9C098); experiment: KINOMEscan; assay type: binding; conditions: 2000 nM
T3 construct: DNA label (qPCR read-out); purchased KINOMEscan (DiscoveRx) panel
T3 sequence (Q9C098 whole entry): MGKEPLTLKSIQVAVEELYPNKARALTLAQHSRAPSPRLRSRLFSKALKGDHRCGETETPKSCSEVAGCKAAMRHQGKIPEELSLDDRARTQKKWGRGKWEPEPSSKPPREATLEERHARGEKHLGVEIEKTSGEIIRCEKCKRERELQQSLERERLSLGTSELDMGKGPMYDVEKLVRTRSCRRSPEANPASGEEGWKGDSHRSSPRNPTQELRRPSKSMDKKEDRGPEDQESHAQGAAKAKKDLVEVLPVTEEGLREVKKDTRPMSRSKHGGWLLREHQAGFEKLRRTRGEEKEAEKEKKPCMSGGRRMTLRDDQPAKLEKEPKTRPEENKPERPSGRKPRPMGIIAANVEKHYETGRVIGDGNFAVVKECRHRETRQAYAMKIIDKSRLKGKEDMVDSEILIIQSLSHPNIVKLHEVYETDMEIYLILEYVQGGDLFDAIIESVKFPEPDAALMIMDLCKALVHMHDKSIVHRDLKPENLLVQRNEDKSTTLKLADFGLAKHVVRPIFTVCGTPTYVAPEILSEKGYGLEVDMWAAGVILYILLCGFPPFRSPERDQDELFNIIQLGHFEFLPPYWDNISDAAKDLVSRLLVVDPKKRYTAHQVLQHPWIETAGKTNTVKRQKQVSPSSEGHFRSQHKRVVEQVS

ULK3 = target: T4, ULK3 (Homo sapiens, UniProt Q6PHR2); experiment: KINOMEscan; assay type: binding; conditions: 2000 nM
T4 construct: DNA label (for qPCR read-out); purchased DiscoveRx (KINOMEscan scanMAX panel)
T4 sequence (Q6PHR2 whole entry): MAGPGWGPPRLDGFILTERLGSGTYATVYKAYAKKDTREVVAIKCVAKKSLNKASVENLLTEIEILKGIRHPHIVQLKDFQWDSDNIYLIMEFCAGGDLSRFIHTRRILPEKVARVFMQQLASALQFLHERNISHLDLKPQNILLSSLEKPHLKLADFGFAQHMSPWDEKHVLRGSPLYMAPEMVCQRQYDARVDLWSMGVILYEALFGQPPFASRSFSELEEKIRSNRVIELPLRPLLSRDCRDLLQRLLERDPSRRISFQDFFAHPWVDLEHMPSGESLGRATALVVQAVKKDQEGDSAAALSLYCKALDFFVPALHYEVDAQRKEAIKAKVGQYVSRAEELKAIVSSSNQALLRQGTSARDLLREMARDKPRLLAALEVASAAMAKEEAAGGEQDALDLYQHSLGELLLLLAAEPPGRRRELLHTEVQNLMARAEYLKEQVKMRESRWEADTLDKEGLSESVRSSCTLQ

CAMK2G = target: T5, CAMK2G (Homo sapiens, UniProt Q13555); experiment: KINOMEscan; assay type: binding; conditions: 2000 nM
T5 construct: DNA label (qPCR read-out); purchased KINOMEscan (ScanMAX panel service)
T5 sequence (Q13555 whole entry): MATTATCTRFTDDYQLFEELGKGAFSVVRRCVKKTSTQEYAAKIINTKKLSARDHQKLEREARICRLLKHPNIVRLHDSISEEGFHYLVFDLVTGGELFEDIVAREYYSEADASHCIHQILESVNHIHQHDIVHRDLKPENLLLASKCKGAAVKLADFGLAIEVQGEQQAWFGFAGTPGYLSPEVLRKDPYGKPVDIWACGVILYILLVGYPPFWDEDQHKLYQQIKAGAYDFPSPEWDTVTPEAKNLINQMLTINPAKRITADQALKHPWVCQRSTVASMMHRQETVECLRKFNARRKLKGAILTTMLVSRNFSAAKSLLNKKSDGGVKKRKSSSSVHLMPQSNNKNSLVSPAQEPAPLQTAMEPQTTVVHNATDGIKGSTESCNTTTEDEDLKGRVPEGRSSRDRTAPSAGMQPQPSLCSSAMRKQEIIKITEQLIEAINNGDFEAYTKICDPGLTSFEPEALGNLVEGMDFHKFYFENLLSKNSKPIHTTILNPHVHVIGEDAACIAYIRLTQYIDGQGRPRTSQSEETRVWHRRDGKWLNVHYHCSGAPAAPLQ

ABL2 = target: T6, ABL2 (Homo sapiens, UniProt P42684); experiment: KINOMEscan; assay type: binding; conditions: 2000 nM
T6 construct: purchased DiscoveRx (KINOMEscan scanMAX panel, service)
T6 sequence (P42684 whole entry): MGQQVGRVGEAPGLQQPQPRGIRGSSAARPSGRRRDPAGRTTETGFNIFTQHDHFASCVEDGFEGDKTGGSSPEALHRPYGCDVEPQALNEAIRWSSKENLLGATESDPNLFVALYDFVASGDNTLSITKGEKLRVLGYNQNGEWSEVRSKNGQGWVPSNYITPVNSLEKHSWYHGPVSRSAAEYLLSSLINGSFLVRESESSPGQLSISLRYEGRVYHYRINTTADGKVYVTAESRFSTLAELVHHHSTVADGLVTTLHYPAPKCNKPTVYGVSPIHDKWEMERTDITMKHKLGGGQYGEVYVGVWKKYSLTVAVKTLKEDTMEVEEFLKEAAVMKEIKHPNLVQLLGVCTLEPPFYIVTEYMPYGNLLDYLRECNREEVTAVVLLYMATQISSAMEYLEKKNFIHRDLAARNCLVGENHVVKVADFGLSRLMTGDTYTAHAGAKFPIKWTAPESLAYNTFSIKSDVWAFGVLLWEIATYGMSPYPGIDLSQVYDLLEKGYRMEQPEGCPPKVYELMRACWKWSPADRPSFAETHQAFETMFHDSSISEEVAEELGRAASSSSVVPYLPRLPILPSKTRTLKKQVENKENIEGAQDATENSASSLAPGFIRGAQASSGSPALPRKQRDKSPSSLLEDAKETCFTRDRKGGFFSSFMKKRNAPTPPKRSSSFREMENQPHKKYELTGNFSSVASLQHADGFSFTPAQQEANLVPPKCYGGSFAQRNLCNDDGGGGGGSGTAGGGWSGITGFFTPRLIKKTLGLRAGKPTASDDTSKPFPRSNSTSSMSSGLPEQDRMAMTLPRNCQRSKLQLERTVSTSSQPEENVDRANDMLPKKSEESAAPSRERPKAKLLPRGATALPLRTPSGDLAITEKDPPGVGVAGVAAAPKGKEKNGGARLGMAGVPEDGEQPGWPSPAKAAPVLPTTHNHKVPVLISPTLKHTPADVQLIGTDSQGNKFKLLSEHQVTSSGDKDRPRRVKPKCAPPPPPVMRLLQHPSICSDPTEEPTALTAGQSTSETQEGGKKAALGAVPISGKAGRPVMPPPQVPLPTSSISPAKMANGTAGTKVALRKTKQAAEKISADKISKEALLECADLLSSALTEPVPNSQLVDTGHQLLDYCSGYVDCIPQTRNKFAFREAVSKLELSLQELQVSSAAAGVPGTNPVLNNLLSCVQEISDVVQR

[1] = Oral PK in female CD-1 mice, solution formulation; conditions: oral gavage in solution, 30 mg/kg (15u series) or 16/18 mg/kg (15w series)
TNK1 = target: T7, TNK1 (Homo sapiens, UniProt Q13470); experiment: KINOMEscan; assay type: binding; conditions: 2000 nM
T7 construct: DNA label (qPCR read-out); purchased KINOMEscan (DiscoveRx) ScanMAX panel
T7 sequence (Q13470 whole entry): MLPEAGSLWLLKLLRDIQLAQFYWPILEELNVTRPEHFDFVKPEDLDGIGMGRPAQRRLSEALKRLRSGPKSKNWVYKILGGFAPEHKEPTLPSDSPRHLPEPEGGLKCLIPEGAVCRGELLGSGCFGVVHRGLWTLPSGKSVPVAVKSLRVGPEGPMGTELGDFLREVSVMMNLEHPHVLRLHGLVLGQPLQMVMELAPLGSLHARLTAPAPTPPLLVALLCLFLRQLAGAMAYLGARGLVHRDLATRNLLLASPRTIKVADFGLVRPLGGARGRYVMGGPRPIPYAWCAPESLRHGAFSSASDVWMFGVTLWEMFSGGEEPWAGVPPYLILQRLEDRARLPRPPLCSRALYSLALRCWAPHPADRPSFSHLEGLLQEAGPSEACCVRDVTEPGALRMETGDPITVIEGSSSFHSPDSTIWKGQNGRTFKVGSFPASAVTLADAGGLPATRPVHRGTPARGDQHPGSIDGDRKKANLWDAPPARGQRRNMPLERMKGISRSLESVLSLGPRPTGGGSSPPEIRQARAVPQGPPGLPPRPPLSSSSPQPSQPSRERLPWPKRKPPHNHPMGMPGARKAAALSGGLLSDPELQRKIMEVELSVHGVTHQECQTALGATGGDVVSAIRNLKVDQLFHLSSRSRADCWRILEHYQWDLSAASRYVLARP

CAMK1G = target: T8, CAMK1G (Homo sapiens, UniProt Q96NX5); experiment: KINOMEscan; assay type: binding; conditions: 2000 nM
T8 construct: DNA label (qPCR read-out); purchased KINOMEscan (ScanMAX panel service)
T8 sequence (Q96NX5 whole entry): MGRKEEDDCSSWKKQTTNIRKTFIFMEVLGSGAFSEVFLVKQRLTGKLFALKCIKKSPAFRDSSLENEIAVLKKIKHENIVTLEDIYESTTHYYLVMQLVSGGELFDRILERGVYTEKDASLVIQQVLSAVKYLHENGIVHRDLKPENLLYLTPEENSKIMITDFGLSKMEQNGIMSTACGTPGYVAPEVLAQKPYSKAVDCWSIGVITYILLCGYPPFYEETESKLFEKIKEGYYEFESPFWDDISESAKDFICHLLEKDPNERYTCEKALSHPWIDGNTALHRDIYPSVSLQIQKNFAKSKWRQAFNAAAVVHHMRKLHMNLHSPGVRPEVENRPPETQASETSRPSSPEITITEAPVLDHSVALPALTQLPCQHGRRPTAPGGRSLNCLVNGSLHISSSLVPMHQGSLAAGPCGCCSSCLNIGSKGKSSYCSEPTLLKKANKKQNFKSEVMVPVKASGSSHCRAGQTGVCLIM

ROS1 = target: T9, ROS1 (Homo sapiens, UniProt P08922); experiment: KINOMEscan; assay type: binding; conditions: 2000 nM
T9 construct: DNA label (qPCR read-out); purchased DiscoveRx (KINOMEscan ScanMAX panel)

MEK3 = target: T10, MEK3 (Homo sapiens, UniProt P46734); experiment: KINOMEscan; assay type: binding; conditions: 2000 nM
T10 construct: purchased DiscoveRx (KINOMEscan scanMAX panel, service)

[2] = system: CRPC cell line 22rv1 xenograft; experiment: 22rv1 CRPC xenograft in castrated male nude mice; assay type: in vivo, mouse; conditions: 50 mg/kg orally daily
Procedure: In another in vivo study, CRPC cell line 22rv1 was grown as a xenograft in castrated male nude mice.

CDK19 = target: T11, CDK19 (Homo sapiens, UniProt Q9BWU1); experiment: Kd Elect binding assay (DiscoverX); conditions: duplicates
T11 construct: DNA label (qPCR read-out); purchased DiscoverX (assay service)
Source text: (§1) Nat. Biotechnol. 23, 329-336 (2005).

CDK8 = target: T12, CDK8 (Homo sapiens, UniProt P49336); experiment: Kd Elect binding assay (DiscoverX); conditions: duplicates
T12 construct: DNA label (qPCR read-out); purchased DiscoverX (assay service)
Source text: as §1

RIOK2 = target: T13, RIOK2 (Homo sapiens, UniProt Q9BVS4); experiment: Kd Elect binding assay (DiscoverX); conditions: duplicates
T13 construct: DNA label (qPCR read-out); purchased DiscoverX (assay service)
Source text: as §1

CSNK1A1 = target: T14, CSNK1A1 (Homo sapiens, UniProt P48729); experiment: Kd Elect binding assay (DiscoverX); conditions: duplicates
T14 construct: DNA label (qPCR read-out); purchased DiscoverX (assay service)
Source text: as §1

GSK3A = target: T15, GSK3A (Homo sapiens, UniProt P49840); experiment: Kd Elect binding assay (DiscoverX); conditions: duplicates
T15 construct: DNA label (qPCR read-out); purchased DiscoverX (assay service)
Source text: as §1

[3] = Long-term MTD study, medicated diet, CD-1 mice; assay type: in vivo, mouse; conditions: female CD-1 mice, 1000 ppm medicated diet, first week
Procedure: In another long-term MTD in vivo assay, groups of male and female CD-1 mice were fed regular diet (control) or 15u-medicated diet (500 ppm or 1000 ppm) for 4 or 5 weeks (FIG. 12B). The daily doses of 500 ppm and 1000 ppm groups were estimated to be about 50-100 mg/kg and 100-200 mg/kg, respectively, based on daily diet consumption.

MDA-MB-468 xenografts = MDA-MB-468 xenografts in NSG mice; assay type: in vivo, mouse; conditions: 66 days
Procedure: To evaluate the effect of CDK8/19 inhibition on in vivo growth of MDA-MB-468 xenografts, 1 million cells with 40% Matrigel ([…] total volume) were injected s.c. into the right flanks of immunodeficient NSG female mice (9 weeks old). 11 days after inoculation, mice were randomized by tumor size into two groups (n=9), with the average tumor volume 115 mm^3 in each group.

[4] = system: alkaline phosphatase (ALPase) in bone marrow stromal cell line ST2; conditions: concentration that enhances ALPase activity to 200% of control; ST2 cells; Saito (2013); cited from earlier work
Mouse PK, oral 1 mg/kg = assay type: in vivo; conditions: female, FVB, serum, mice, oral (gavage) 1 mg/kg
[5] = MTD study, oral gavage b.i.d. 14 days, CD-1 mice; assay type: in vivo, mouse; conditions: for detrimental effects: 14 days
Procedure: The highest dose (120 mg/kg b.i.d.) caused about 10% body weight loss in female mice after 7-10 days of treatment but no further deterioration was observed through the rest of the treatment period (FIG. 12A).

[6] = Mouse oral PK of 15u/15w mixture at 30 mg/kg; conditions: female CD1 mice, oral 30 mg/kg of each compound, latest timepoint 8 hrs
[7] = system: NFκB activation in CDK8/19-deficient cells; experiment: NFκB reporter assay in CDK8/19 double-knockout 293 reporter cells; conditions: CDK8/19 double-knockout reporter cells
MYC-CaP-CR tumors = experiment: MYC-CaP-CR subcutaneous tumors in intact FVB male mice; assay type: in vivo, mouse; conditions: intact (uncastrated) FVB male mice
[8] = system: MDA-MB-468 triple-negative breast cancer (TNBC) cells; experiment: MDA-MB-468 long-term treatment in vitro; assay type: cell-based, Human
Mouse PK, intravenous = assay type: in vivo; conditions: female FVB mice, i.v. 0.5 mg/kg, mixture
Procedure: Pharmacokinetics (PK) Assay. To measure mouse pharmacokinetics (PK), thienopyridine derivatives were dissolved in 5% dextrose and administered to female FVB mice at different dosing conditions; blood samples were collected at different time points and compound concentrations in the serum were measured by LC/MS/MS.

[9] = medicated diet 250 ppm plus daily gavage 5 then 8 mg/kg

T2 sequence (Q9UKI8 whole entry): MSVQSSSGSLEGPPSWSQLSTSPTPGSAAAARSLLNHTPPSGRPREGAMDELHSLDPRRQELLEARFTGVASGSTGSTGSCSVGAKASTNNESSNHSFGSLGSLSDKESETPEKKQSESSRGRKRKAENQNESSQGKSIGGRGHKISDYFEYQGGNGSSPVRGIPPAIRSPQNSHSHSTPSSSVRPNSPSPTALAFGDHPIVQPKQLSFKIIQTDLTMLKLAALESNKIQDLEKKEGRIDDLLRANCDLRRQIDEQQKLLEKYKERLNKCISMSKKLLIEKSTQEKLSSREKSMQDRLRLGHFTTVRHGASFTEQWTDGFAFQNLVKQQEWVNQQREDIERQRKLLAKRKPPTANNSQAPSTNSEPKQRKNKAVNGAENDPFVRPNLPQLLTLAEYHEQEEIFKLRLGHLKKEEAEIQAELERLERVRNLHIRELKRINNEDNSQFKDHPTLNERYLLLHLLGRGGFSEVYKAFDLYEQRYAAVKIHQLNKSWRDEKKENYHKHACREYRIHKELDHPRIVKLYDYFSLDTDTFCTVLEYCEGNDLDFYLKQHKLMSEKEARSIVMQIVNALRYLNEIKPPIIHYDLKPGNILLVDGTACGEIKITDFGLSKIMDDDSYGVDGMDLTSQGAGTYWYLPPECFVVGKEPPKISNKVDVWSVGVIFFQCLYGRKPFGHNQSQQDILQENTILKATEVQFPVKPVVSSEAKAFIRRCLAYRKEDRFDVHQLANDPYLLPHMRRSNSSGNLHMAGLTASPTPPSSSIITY

[2H]C([2H])([2H])N(C(=O)c1ccc(N2CCCN(c3ccnc4sc(C(N)=O)c(N)c34)CC2)cc1)C([2H])([2H])[2H] [15u_D6, 3-amino-4-(4-(4-(bis(methyl-d3)carbamoyl)phenyl)-1,4-diazepan-1-yl)thieno[2,3-b]pyridine-2-carboxamide]
% Ctrl (VEGFR2): 84 % Ctrl | % Ctrl (TLK1): 85 % Ctrl | % Ctrl (DCAMKL3): 100 % Ctrl | % Ctrl (ULK3): 79 % Ctrl | % Ctrl (CAMK2G): 100 % Ctrl | % Ctrl (ABL2): 91 % Ctrl | PK (AUC 0-8 h) versus undeuterated parent [1]: slightly improved the PK | % Ctrl (TNK1): 100 % Ctrl | % Ctrl (CAMK1G): 99 % Ctrl | % Ctrl (ROS1): 100 % Ctrl | % Ctrl (MEK3): 47 % Ctrl

CN(C)C(=O)c1ccc(N2CCCN(c3ccnc4sc(C(N)=O)c(N)c34)CC2)cc1 [15u, 3-amino-4-(4-(4-(dimethylcarbamoyl)phenyl)-1,4-diazepan-1-yl)thieno[2,3-b]pyridine-2-carboxamide]
% Ctrl (VEGFR2): 67 % Ctrl | % Ctrl (TLK1): 97 % Ctrl | adverse effects and body weight [2]: no apparent adverse effects and no diminution of mouse body weight | xenograft tumor growth [2]: strongly suppressed the tumor growth | pKd (CDK19): 7.19 | pKd (CDK8): 7.11 | pKd (RIOK2): 6.62 | pKd (CSNK1A1): 6.64 | pKd (GSK3A): 5.25 | weight loss [3]: 5-10% | mouse body weights (MDA-MB-468 xenografts; long-term treatment): no detrimental effects | final tumor weights (MDA-MB-468 xenografts; [9]): significantly lower | tumor volume (MDA-MB-468 xenografts; [9]): significant reduction in tumor volume | ALP activity Assay EC200 [4]: 31.9 nM | % Ctrl (DCAMKL3): 91 % Ctrl | AUC (Mouse PK, oral 1 mg/kg): 79.3 ng·h/mL | half-life (Mouse PK, oral 1 mg/kg): 78 min | bioavailability (Mouse PK, oral 1 mg/kg; read-out: Bioavailability (F %)): 43% | % Ctrl (ULK3): 96 % Ctrl | body weight loss ([5]; female CD-1 mice, 120 mg/kg b.i.d., after 7-10 days of treatment): about 10% | detrimental effects ([5]; female CD-1 mice, doses up to 60 mg/kg b.i.d.): No detrimental effects | detrimental effects ([5]; male CD-1 mice, 60 and 120 mg/kg b.i.d.): No detrimental effects | average serum concentration at 8 hrs as % of Cmax [6]: 64.4% | % Ctrl (CAMK2G): 100 % Ctrl | % Ctrl (ABL2): 85 % Ctrl | % Ctrl (TNK1): 100 % Ctrl | % Ctrl (CAMK1G): 99 % Ctrl | effect on NFκB activation in CDK8/19-deficient cells [7]: no effect | % Ctrl (ROS1): 95 % Ctrl | % Ctrl (MEK3): 68 % Ctrl | tumor volume and weight (MYC-CaP-CR tumors): modest effect | response upon long-term treatment in vitro [8]: responsive | Elimination rate (Mouse PK, intravenous): 4.03 h⁻¹ | AUC (Mouse PK, intravenous; mouse, serum, iv): 92.1 ng·h/mL | C0 (Mouse PK, intravenous; mouse, serum, iv): 328 ng/mL | Vd (Mouse PK, intravenous; mouse, serum, iv): 1.52 L/kg | half-life (Mouse PK, intravenous; mouse, serum, iv): 10.2 min
